According to patent publication US8338423B2, “Compositions for the treatment of hyperphenylalaninemia” (Universidad de Zaragoza, priority 2007, dated 2012):

Biological target: T1, wt-PAH (Homo sapiens, UniProt P00439)
T1 construct: made in house; host or cells: E. coli
T1 sequence (P00439 1-452): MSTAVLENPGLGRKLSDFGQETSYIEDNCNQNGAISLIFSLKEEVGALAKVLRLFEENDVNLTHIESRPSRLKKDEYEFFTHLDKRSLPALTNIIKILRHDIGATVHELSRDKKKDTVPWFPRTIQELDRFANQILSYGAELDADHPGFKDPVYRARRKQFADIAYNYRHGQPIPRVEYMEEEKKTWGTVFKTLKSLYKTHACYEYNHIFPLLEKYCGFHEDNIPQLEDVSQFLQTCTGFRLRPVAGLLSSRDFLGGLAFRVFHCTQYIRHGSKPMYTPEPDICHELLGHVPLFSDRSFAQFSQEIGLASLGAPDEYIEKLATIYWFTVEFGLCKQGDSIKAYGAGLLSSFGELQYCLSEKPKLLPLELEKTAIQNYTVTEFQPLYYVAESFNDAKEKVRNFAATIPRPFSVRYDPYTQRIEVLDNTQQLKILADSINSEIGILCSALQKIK
Test: Enzyme kinetic analysis of recombinant PAH activity
Assay type: biochemical
Details: for S0.5, L-Phe / Vmax, L-Phe / h (Hill coefficient), L-Phe / Vmax, BH4, No preincubation / Vmax, BH4, Preincubation / reduction in Vmax (activity dependence on L-Phe) / inhibition of PAH activity / increase of Km for BH4: 100 μM compound; for S0.5, L-Phe / Vmax, L-Phe / h (Hill coefficient), L-Phe: 75 μM BH4, L-Phe 0-1 mM, preincubated; for S0.5, L-Phe / Vmax, L-Phe / h (Hill coefficient), L-Phe / Vmax, BH4, No preincubation / Vmax, BH4, Preincubation: mean ± S.E.; for Vmax, BH4, No preincubation / Vmax, BH4, Preincubation: 1 mM L-Phe, BH4 0-200 μM; for Vmax, BH4, No preincubation: not preincubated; for Vmax, BH4, Preincubation: preincubated with L-Phe; for reduction in Vmax (activity dependence on L-Phe): 75 μM BH4; for inhibition of PAH activity: 100 μM L-Phe, 10 μM BH4, L-Phe preincubation (FIG. 3A); for increase of Km for BH4: preincubation with 1 mM L-Phe; for Ki: using standard equations for competitive inhibition, read-out: Kl vs BH4 (competitive inhibition)
Description: PAH activity was measured at 25° C. for 1 min essentially as described (BjØrgo E, et al., Eur. J. Biochem. 1988; 257(1):1-10). Tetrameric hPAH (1-2 μg) was incubated in 20 mM Hepes 0.2 M NaCl pH 7.0, containing catalase (0.04 mg/ml), 0.1-1 mM L-Phe, DMSO 2.5% and 0-100 μM of each compound. After 4 min incubation at 25° C., ferrous ammonium sulphate (100 μM) was added, and the reaction was triggered after 1 min by adding BH4 (10-200 μM) in the presence of 5 mM DTT. In some experiments, the preincubation step with L-Phe was omitted and L-Phe was added together with BH4 to analyze the L-Phe induced activation of the enzyme. To determine the kinetic parameters for BH4 and L-Phe, BH4 was used at 0-200 μM (at fixed 1 mM L-Phe) and L-Phe at 0-1 mM (BH4 was fixed at 75 μM). L-Tyr formed was quantified by HPLC and fluorimetric detection (DØskeland A P, et al., J. Biol. Chem. 1984; 259:11242-11248). The saturation curves were fitted to hyperbolic (for BH4) or sigmoidal (for L-Phe) kinetic models by using Sigma Plot v.9.0 (SPSS Inc).
PAH enzyme kinetics have been analyzed in the presence of the four hit compounds in order to know if ligand binding interferes with PAH catalytic activity. Activity measurements were performed in the presence of high (100 μM) concentrations of ligands with or without preincubating PAH enzyme with L-Phe prior to activity assays. L-Phe preincubation of human PAH lead to activation of the enzyme and manifestation of positive cooperativity by the substrate, and it is thought to play an important regulatory role on PAH activity in vivo (Pey A L, et al., In: Blau N. ed. Advances in PKU and BH4, 2006). […] It is worth noting that under these conditions, ligand concentration equalled L-Phe concentration (100 μM), and 10-fold exceeded BH4 concentration (10 μM). Except for compound 13, this inhibition was dramatically weakened when the preincubation step with L-Phe (100 μM) was ommited. Moreover, when L-Phe and BH4 are used at saturating concentrations, inhibition was abolished (FIG. 3B), indicating a rather weak and reversible inhibitory effect exerted by these ligands.
Further kinetic analyses were performed to determine if the weak inhibition was due to competition for the substrate and/or cofactor binding sites. Activity dependence on BH4 and L-Phe concentration was measured in the presence of 100 μM compound concentration, and the experimental data fitted to hyperbolic (BH4) or sigmoidal (L-Phe) kinetic models. The fitting parameters obtained from these experiments are compiled in Table 2. […] These values are substantially higher than those obtained for likely physiological inhibitors of PAH, such as 7S-BH4 and BH2 (Kl˜2-5 μM and ˜17 μM, respectively).

S0.5, L-Phe [µM]	Vmax, L-Phe [μmol L-Tyr/min·mg]	h (Hill coefficient), L-Phe	Vmax, BH4, No preincubation [μmol L-Tyr/min·mg]	Vmax, BH4, Preincubation [μmol L-Tyr/min·mg]	reduction in Vmax (activity dependence on L-Phe)	inhibition of PAH activity	increase of Km for BH4 [%]	Ki [µM]	SMILES
138 ± 8	3.57 ± 0.11	1.9 ± 0.2	0.86 ± 0.03	2.87 ± 0.14	–	–	–	–	Nc1c(-c2ccc3ccccc3n2)c2ccc([N+](=O)[O-])cc2c(=O)n1Cc1ccccc1 [Compound 11, 3-amino-2-benzyl-7-nitro-4-(2-quinolyl)-1,2-dihydroisoquinolin-1-one]
118 ± 5	3.02 ± 0.08	2.6 ± 0.3	0.80 ± 0.05	3.52 ± 0.41	about 13%	specially significant	~20	~500	Cc1onc(-c2ccccc2)c1-c1n[nH]c(N)c1C#N [Compound 5, 5-amino-3-(5-methyl-3-phenyl-4-isoxazolyl)-1H-pyrazole-4-carbonitrile]
156 ± 10	3.77 ± 0.13	1.8 ± 0.1	0.81 ± 0.05	2.96 ± 0.10	–	–	–	–	Cn1cnc([N+](=O)[O-])c1N1CCN(C(c2ccccc2)c2ccccc2)CC1 [Compound 6, 1-benzhydryl-4-(1-methyl-4-nitro-1H-imidazol-5-yl)piperazine]
131 ± 11	2.43 ± 0.10	1.6 ± 0.2	0.85 ± 0.07	3.11 ± 0.16	~30%	specially significant	~50	~200	Cc1ccnc(-n2c(=S)[nH]c3sc(C)c(C)c3c2=O)c1 [Compound 13, 5,6-dimethyl-3-(4-methyl-2-pyridinyl)-2-thioxo-2,3 dihydrothieno[2,3-d]pyrimidin-4(1H)-one]
